Test results reported in ChEMBL document CHEMBL3769303, “Discovery of membrane active benzimidazole quinolones-based topoisomerase inhibitors as potential DNA-binding antimicrobial agents” (Eur J Med Chem, 2016).
Values after ≈ are worked out from the molar mass of the structure shown.

System: Saccharomyces cerevisiae
Assay: Antifungal activity against Saccharomyces cerevisiae ATCC 9763 after 24 hrs by micro broth dilution method
Format: functional
Details: ATCC 9763, 24 h

SMILES	MIC80 [µg/mL]
CCCCCCCCCCn1c(CN2CCN(c3cc4c(cc3F)c(=O)c(C(=O)O)cn4C3CC3)CC2)nc2ccccc21	16 (≈ 26.6 µM)
CCCCCCn1c(CN2CCN(c3cc4c(cc3F)c(=O)c(C(=O)O)cn4C3CC3)CC2)nc2ccccc21	128 (≈ 235 µM)
O=C(O)c1cn(C2CC2)c2cc(N3CCN(Cc4nc5ccccc5n4Cc4ccccc4F)CC3)c(F)cc2c1=O	32 (≈ 56.2 µM)
O=C(O)c1cn(C2CC2)c2cc(N3CCN(Cc4nc5ccc([N+](=O)[O-])cc5[nH]4)CC3)c(F)cc2c1=O	4 (≈ 7.9 µM)

System: Staphylococcus aureus
Assay: Antibacterial activity against Staphylococcus aureus ATCC 25923 by micro broth dilution method
Format: functional
Details: not given

SMILES	MIC [µg/mL]
CCCCCCCCCCn1c(CN2CCN(c3cc4c(cc3F)c(=O)c(C(=O)O)cn4C3CC3)CC2)nc2ccccc21	64 (≈ 106 µM)
CCCCCCn1c(CN2CCN(c3cc4c(cc3F)c(=O)c(C(=O)O)cn4C3CC3)CC2)nc2ccccc21	256 (≈ 469 µM)
O=C(O)c1cn(C2CC2)c2cc(N3CCN(Cc4nc5ccccc5n4Cc4ccccc4F)CC3)c(F)cc2c1=O	16 (≈ 28.1 µM)
O=C(O)c1cn(C2CC2)c2cc(N3CCN(Cc4nc5ccc([N+](=O)[O-])cc5[nH]4)CC3)c(F)cc2c1=O	16 (≈ 31.6 µM)

System: Staphylococcus aureus
Assay: Antibacterial activity against methicillin-resistant Staphylococcus aureus N315 by micro broth dilution method
Format: functional
Details: not given

SMILES	MIC [µg/mL]
CCCCCCCCCCn1c(CN2CCN(c3cc4c(cc3F)c(=O)c(C(=O)O)cn4C3CC3)CC2)nc2ccccc21	64 (≈ 106 µM)
CCCCCCn1c(CN2CCN(c3cc4c(cc3F)c(=O)c(C(=O)O)cn4C3CC3)CC2)nc2ccccc21	128 (≈ 235 µM)
O=C(O)c1cn(C2CC2)c2cc(N3CCN(Cc4nc5ccccc5n4Cc4ccccc4F)CC3)c(F)cc2c1=O	0.25 (≈ 0.439 µM)
O=C(O)c1cn(C2CC2)c2cc(N3CCN(Cc4nc5ccc([N+](=O)[O-])cc5[nH]4)CC3)c(F)cc2c1=O	2 (≈ 3.95 µM)

System: Escherichia coli
Assay: Antibacterial activity against Escherichia coli DH52 by micro broth dilution method
Format: functional
Details: not given

SMILES	MIC [µg/mL]
CCCCCCCCCCn1c(CN2CCN(c3cc4c(cc3F)c(=O)c(C(=O)O)cn4C3CC3)CC2)nc2ccccc21	128 (≈ 213 µM)
CCCCCCn1c(CN2CCN(c3cc4c(cc3F)c(=O)c(C(=O)O)cn4C3CC3)CC2)nc2ccccc21	16 (≈ 29.3 µM)
O=C(O)c1cn(C2CC2)c2cc(N3CCN(Cc4nc5ccccc5n4Cc4ccccc4F)CC3)c(F)cc2c1=O	1 (≈ 1.76 µM)
O=C(O)c1cn(C2CC2)c2cc(N3CCN(Cc4nc5ccc([N+](=O)[O-])cc5[nH]4)CC3)c(F)cc2c1=O	4 (≈ 7.9 µM)

System: Aspergillus flavus
Assay: Antifungal activity against Aspergillus flavus ATCC 204304 after 24 hrs by micro broth dilution method
Format: functional
Details: ATCC 204304, 24 h

SMILES	MIC80 [µg/mL]
CCCCCCCCCCn1c(CN2CCN(c3cc4c(cc3F)c(=O)c(C(=O)O)cn4C3CC3)CC2)nc2ccccc21	16 (≈ 26.6 µM)
CCCCCCn1c(CN2CCN(c3cc4c(cc3F)c(=O)c(C(=O)O)cn4C3CC3)CC2)nc2ccccc21	128 (≈ 235 µM)
O=C(O)c1cn(C2CC2)c2cc(N3CCN(Cc4nc5ccccc5n4Cc4ccccc4F)CC3)c(F)cc2c1=O	16 (≈ 28.1 µM)
O=C(O)c1cn(C2CC2)c2cc(N3CCN(Cc4nc5ccc([N+](=O)[O-])cc5[nH]4)CC3)c(F)cc2c1=O	4 (≈ 7.9 µM)

System: Pseudomonas aeruginosa
Assay: Antibacterial activity against Pseudomonas aeruginosa ATCC 27853 by micro broth dilution method
Format: functional
Details: not given

SMILES	MIC [µg/mL]
CCCCCCCCCCn1c(CN2CCN(c3cc4c(cc3F)c(=O)c(C(=O)O)cn4C3CC3)CC2)nc2ccccc21	32 (≈ 53.2 µM)
CCCCCCn1c(CN2CCN(c3cc4c(cc3F)c(=O)c(C(=O)O)cn4C3CC3)CC2)nc2ccccc21	16 (≈ 29.3 µM)
O=C(O)c1cn(C2CC2)c2cc(N3CCN(Cc4nc5ccccc5n4Cc4ccccc4F)CC3)c(F)cc2c1=O	2 (≈ 3.51 µM)
O=C(O)c1cn(C2CC2)c2cc(N3CCN(Cc4nc5ccc([N+](=O)[O-])cc5[nH]4)CC3)c(F)cc2c1=O	0.5 (≈ 0.987 µM)

System: Bacillus spizizenii
Assay: Antibacterial activity against Bacillus subtilis ATCC 6633 by micro broth dilution method
Format: functional
Details: not given

SMILES	MIC [µg/mL]
CCCCCCCCCCn1c(CN2CCN(c3cc4c(cc3F)c(=O)c(C(=O)O)cn4C3CC3)CC2)nc2ccccc21	64 (≈ 106 µM)
CCCCCCn1c(CN2CCN(c3cc4c(cc3F)c(=O)c(C(=O)O)cn4C3CC3)CC2)nc2ccccc21	16 (≈ 29.3 µM)
O=C(O)c1cn(C2CC2)c2cc(N3CCN(Cc4nc5ccccc5n4Cc4ccccc4F)CC3)c(F)cc2c1=O	8 (≈ 14 µM)
O=C(O)c1cn(C2CC2)c2cc(N3CCN(Cc4nc5ccc([N+](=O)[O-])cc5[nH]4)CC3)c(F)cc2c1=O	8 (≈ 15.8 µM)

System: not listed separately
Assay: Antifungal activity against Candida mycoderma ATCC 9888 after 24 hrs by micro broth dilution method
Format: functional
Details: Candida vini

SMILES	MIC80 [µg/mL]
CCCCCCCCCCn1c(CN2CCN(c3cc4c(cc3F)c(=O)c(C(=O)O)cn4C3CC3)CC2)nc2ccccc21	64 (≈ 106 µM)
CCCCCCn1c(CN2CCN(c3cc4c(cc3F)c(=O)c(C(=O)O)cn4C3CC3)CC2)nc2ccccc21	8 (≈ 14.7 µM)
O=C(O)c1cn(C2CC2)c2cc(N3CCN(Cc4nc5ccccc5n4Cc4ccccc4F)CC3)c(F)cc2c1=O	16 (≈ 28.1 µM)
O=C(O)c1cn(C2CC2)c2cc(N3CCN(Cc4nc5ccc([N+](=O)[O-])cc5[nH]4)CC3)c(F)cc2c1=O	8 (≈ 15.8 µM)

System: Candida albicans
Assay: Antifungal activity against Candida albicans ATCC 10231 after 24 hrs by micro broth dilution method
Format: functional
Details: ATCC 10231, 24 h

SMILES	MIC80 [µg/mL]
CCCCCCCCCCn1c(CN2CCN(c3cc4c(cc3F)c(=O)c(C(=O)O)cn4C3CC3)CC2)nc2ccccc21	64 (≈ 106 µM)
CCCCCCn1c(CN2CCN(c3cc4c(cc3F)c(=O)c(C(=O)O)cn4C3CC3)CC2)nc2ccccc21	16 (≈ 29.3 µM)
O=C(O)c1cn(C2CC2)c2cc(N3CCN(Cc4nc5ccccc5n4Cc4ccccc4F)CC3)c(F)cc2c1=O	32 (≈ 56.2 µM)
O=C(O)c1cn(C2CC2)c2cc(N3CCN(Cc4nc5ccc([N+](=O)[O-])cc5[nH]4)CC3)c(F)cc2c1=O	2 (≈ 3.95 µM)

System: not listed separately
Assay: Antibacterial activity against Bacillus proteus ATCC 13315 by micro broth dilution method
Format: functional
Details: not given

SMILES	MIC [µg/mL]
CCCCCCCCCCn1c(CN2CCN(c3cc4c(cc3F)c(=O)c(C(=O)O)cn4C3CC3)CC2)nc2ccccc21	32 (≈ 53.2 µM)
CCCCCCn1c(CN2CCN(c3cc4c(cc3F)c(=O)c(C(=O)O)cn4C3CC3)CC2)nc2ccccc21	16 (≈ 29.3 µM)
O=C(O)c1cn(C2CC2)c2cc(N3CCN(Cc4nc5ccccc5n4Cc4ccccc4F)CC3)c(F)cc2c1=O	1 (≈ 1.76 µM)
O=C(O)c1cn(C2CC2)c2cc(N3CCN(Cc4nc5ccc([N+](=O)[O-])cc5[nH]4)CC3)c(F)cc2c1=O	4 (≈ 7.9 µM)

System: Salmonella enterica
Assay: Antibacterial activity against Salmonella enterica ATCC 14028 by micro broth dilution method
Format: functional
Details: not given

SMILES	MIC [µg/mL]
CCCCCCCCCCn1c(CN2CCN(c3cc4c(cc3F)c(=O)c(C(=O)O)cn4C3CC3)CC2)nc2ccccc21	32 (≈ 53.2 µM)
CCCCCCn1c(CN2CCN(c3cc4c(cc3F)c(=O)c(C(=O)O)cn4C3CC3)CC2)nc2ccccc21	16 (≈ 29.3 µM)
O=C(O)c1cn(C2CC2)c2cc(N3CCN(Cc4nc5ccccc5n4Cc4ccccc4F)CC3)c(F)cc2c1=O	0.25 (≈ 0.439 µM)
O=C(O)c1cn(C2CC2)c2cc(N3CCN(Cc4nc5ccc([N+](=O)[O-])cc5[nH]4)CC3)c(F)cc2c1=O	4 (≈ 7.9 µM)

System: Cyberlindnera jadinii
Assay: Antifungal activity against Candida utilis ATCC 9950 after 24 hrs by micro broth dilution method
Format: functional
Details: Williopsis jadinii, ATCC 9950, 24 h

SMILES	MIC80 [µg/mL]
CCCCCCCCCCn1c(CN2CCN(c3cc4c(cc3F)c(=O)c(C(=O)O)cn4C3CC3)CC2)nc2ccccc21	64 (≈ 106 µM)
CCCCCCn1c(CN2CCN(c3cc4c(cc3F)c(=O)c(C(=O)O)cn4C3CC3)CC2)nc2ccccc21	32 (≈ 58.6 µM)
O=C(O)c1cn(C2CC2)c2cc(N3CCN(Cc4nc5ccccc5n4Cc4ccccc4F)CC3)c(F)cc2c1=O	8 (≈ 14 µM)
O=C(O)c1cn(C2CC2)c2cc(N3CCN(Cc4nc5ccc([N+](=O)[O-])cc5[nH]4)CC3)c(F)cc2c1=O	4 (≈ 7.9 µM)

System: Escherichia coli
Assay: Antibacterial activity against Escherichia coli JM109 by micro broth dilution method
Format: functional
Details: not given

SMILES	MIC [µg/mL]
CCCCCCCCCCn1c(CN2CCN(c3cc4c(cc3F)c(=O)c(C(=O)O)cn4C3CC3)CC2)nc2ccccc21	128 (≈ 213 µM)
CCCCCCn1c(CN2CCN(c3cc4c(cc3F)c(=O)c(C(=O)O)cn4C3CC3)CC2)nc2ccccc21	64 (≈ 117 µM)
O=C(O)c1cn(C2CC2)c2cc(N3CCN(Cc4nc5ccccc5n4Cc4ccccc4F)CC3)c(F)cc2c1=O	2 (≈ 3.51 µM)
O=C(O)c1cn(C2CC2)c2cc(N3CCN(Cc4nc5ccc([N+](=O)[O-])cc5[nH]4)CC3)c(F)cc2c1=O	8 (≈ 15.8 µM)

System: Shigella dysenteriae
Assay: Antibacterial activity against Shigella dysenteriae by micro broth dilution method
Format: functional
Details: not given

SMILES	MIC [µg/mL]
CCCCCCCCCCn1c(CN2CCN(c3cc4c(cc3F)c(=O)c(C(=O)O)cn4C3CC3)CC2)nc2ccccc21	64 (≈ 106 µM)
CCCCCCn1c(CN2CCN(c3cc4c(cc3F)c(=O)c(C(=O)O)cn4C3CC3)CC2)nc2ccccc21	64 (≈ 117 µM)
O=C(O)c1cn(C2CC2)c2cc(N3CCN(Cc4nc5ccccc5n4Cc4ccccc4F)CC3)c(F)cc2c1=O	4 (≈ 7.02 µM)
O=C(O)c1cn(C2CC2)c2cc(N3CCN(Cc4nc5ccc([N+](=O)[O-])cc5[nH]4)CC3)c(F)cc2c1=O	4 (≈ 7.9 µM)

System: Micrococcus luteus
Assay: Antibacterial activity against Micrococcus luteus ATCC 4698 by micro broth dilution method
Format: functional
Details: NCTC 2665

SMILES	MIC [µg/mL]
CCCCCCCCCCn1c(CN2CCN(c3cc4c(cc3F)c(=O)c(C(=O)O)cn4C3CC3)CC2)nc2ccccc21	128 (≈ 213 µM)
CCCCCCn1c(CN2CCN(c3cc4c(cc3F)c(=O)c(C(=O)O)cn4C3CC3)CC2)nc2ccccc21	32 (≈ 58.6 µM)
O=C(O)c1cn(C2CC2)c2cc(N3CCN(Cc4nc5ccccc5n4Cc4ccccc4F)CC3)c(F)cc2c1=O	0.25 (≈ 0.439 µM)
O=C(O)c1cn(C2CC2)c2cc(N3CCN(Cc4nc5ccc([N+](=O)[O-])cc5[nH]4)CC3)c(F)cc2c1=O	8 (≈ 15.8 µM)
